# Experimental data as given in US10696661B2, “Compounds” (Exonate Limited, priority 2015, dated 2020).
# B1: Lucentis: a novel humanized anti-VEGF antibody fragment (antibody, chains of the INN, looked up, V domains shown)
# VH: EVQLVESGGGLVQPGGSLRLSCAASGYDFTHYGMNWVRQAPGKGLEWVGWINTYTGEPTYAADFKRRFTFSLDTSKSTAYLQMNSLRAEDTAVYYCAKYPYYYGTSHWYFDVWGQGTLVTVSS
# VL: DIQLTQSPSSLSASVGDRVTITCSASQDISNYLNWYQQKPGKAPKVLIYFTSSLHSGVPSRFSGSGSGTDFTLTISSLQPEDFATYYCQQYSTVPWTFGQGTKVEIK
# modifications: Fab
# notes: a novel humanized anti-VEGF antibody fragment
# Tests used:
# [1] = test system: VEGF-A165a / VEGF-A165b mRNA in primary RPE cells and ARPE-19 cells; test: qRT-PCR and conventional PCR of VEGF-A alternative splicing; assay type: cell-based, human; settings: FIGS. 8 and 9
# Description: Primary human retinal epithelial cells were lysed in Trizol reagent and mRNA was extracted using the method of Chomczynski and Sacchi, or using an RNeasy RNA extraction kit (Qiagen, UK). mRNA was reverse transcribed using Thermoscript reverse transcriptase (Fisher Scientific, UK). The cDNA was amplified using primers designed to amplify the region spanning the proximal and distal splice sites in human VEGF-A165a and VEGF-A165b, to amplify both isoforms and differentiate between them due to the fact that the exon 8b-containing isoform is 66-bp shorter than the exon 8a-containing isoform. The primers used were; 5′-[…]-3′ (SEQ ID NO:2) and 5′-[…]-3′ (SEQ ID NO:3) with the following conditions; 96° C. for 2 min followed by 45 cycles at 96° C.-30 s, 60° C.-30 s and 72° C.-30 s. The PCR mix consisted of DNA: 200 ng, MgCl2 0.25 mM, Primer each […], Taq polymerase 1 unit and dH2O up to 25 μl. Control plasmid concentration: VEGF165a 500 ng and VEGF165b 1 μg. PCR products were run on 3% agarose gels containing 0.5 μg/ml ethidium bromide.
# RNA was isolated and reverse transcribed as described above. Quantitative PCR (qPCR) was performed with a LightCycler 480 (Roche) q-PCR machine. The qPCR mix included PCR-grade dH2O 3 PCR Primer (1 μM) 2 μl. […]
# VEGF-A alternative splicing was further measured in retinal pigmented epithelial cells by qRT-PCR and conventional PCR.
# [2] = test system: VEGF165b and VEGF165 protein in retinal pigmented epithelial cells; test: VEGF isoform specific ELISA in retinal pigmented epithelial cells; assay type: cell-based, human; settings: relative to DMSO control, FIG. 3
# Method: 96-well clear microplate (high sensitivity thermo immulon or costar 9018) were coated with 100 μL of 10 μg/ml VEGFxxxb or 0.25 μg/ml anti-hVEGF165a per well. The plate was sealed with parafilm and incubated overnight on the shaker at room temp. Each well was aspirated and washed with Wash Buffer (200 μl PBS-Tween 0.05%), two times for a total of three washes. After the last wash, remaining Wash Buffer was removed by inverting the plate and blotting it against clean paper towels. Plates were blocked by adding 100 μl of Reagent Diluent (1% BSA/PBS) to each well and incubated at room temp on a shaker for 2 hours. The aspiration/wash step was repeated. 100 μL of standards or samples in 1% BSA/PBS were added to each well, covered with parafilm and incubated 2 hours at room temperature. The aspiration/wash was repeated and 100 μL of 100 ng/ml Detection Antibody (BAF293), diluted in Reagent Diluent, was added to each well which were covered with parafilm and incubated 2 hours at room temp. The aspiration/wash was repeated and 100 μL of the working dilution of Streptavidin-HRP (1:200 dilution) was added to each well. […] The optical density of each well was measured immediately, using a microplate reader set to 450 nm.
# To determine whether these compounds could switch splicing of VEGF isoforms, VEGF was measured in retinal pigmented epithelial cells by isoform specific ELISA.
# [3] = test system: laser-induced choroidal neovascularisation (CNV); test: Laser-induced choroidal neovascularisation (CNV) in mice, topical eye drops; assay type: in vivo; settings: mouse, eye drop, FIG. 4-7
# Method: 6-8 week-old female C57/B6 mice were anesthetized with an intraperitoneal injection of a mixture of 50 mg/kg ketamine and 0.5 mg/kg medetomidine. The pupils were immediately dilated by topical (eyedrop) application with a dilator such as 5% phenylephrine hydrochloride and 1% tropicamide. Four photocoagulation lesions were delivered with a green Merilas 532a laser (450 mW, 130 ms) between the “large” retinal vessels in clear space with no vessels in a peripapillary distribution at a distance of 1-2 disc-diameters in each eye. Only clean laser lesions with a subretinal bubble at the time of treatment were included in the study. Immediately following laser photocoagulation the animals were given topical eye drops of candidate compounds twice daily (10 μl, eyes held for 30 seconds to prevent animal wiping drop away).
# After one week, mice were anesthetized with an intraperitoneal injection of a mixture of 50 mg/kg ketamine and 0.5 mg/kg medetomidine. The pupils were immediately dilated by topical (eyedrop) application with a dilator such as 5% phenylephrine hydrochloride and 1% tropicamide. Mice were administered an intraperitoneal injection of sodium fluorescein (10%). Phase contrast and green fluorescent fundus images were taken with an angiography microscope and camera with each lesion in focus. […]
# VEGF165b and VEGF165 = settings: cited from earlier work
# neovascular AMD = settings: treated monthly, 0.5 mg, at one year; cited from earlier work
molecule,measurement,setting,value
"O=C(Nc1cc(C(F)(F)F)ccc1N1CCN(Cc2cc[nH]n2)CC1)c1ccc(C2CCOCC2)o1 [Compound 14, N-(2-(4-((1H-pyrazol-3-yl)methyl)piperazin-1-yl)-5-(trifluoromethyl)-phenyl)-5-(tetrahydro-2H-pyran-4-yl)furan-2-carboxamide]",VEGF-A165a/VEGF165b mRNA isoform expression,[1]; endothelial cells (figure legend),decrease
same,levels of VEGF165b relative to VEGF165 RNA,[1]; primary RPE cells and ARPE-19 cells,switched the levels of VEGF165b relative to VEGF165 RNA by a decrease in VEGF165
"O=C(Nc1cc(C(F)(F)F)ccc1N1CCN(Cc2cocn2)CC1)c1ccc(-c2ccncc2)o1 [Compound 17, N-(2-(4-(oxazol-4-ylmethyl)piperazin-1-yl)-5-(trifluoromethyl)phenyl)-5-(pyridin-4-yl)furan-2-carboxamide]",VEGF165b protein,[2],increase in VEGF165b
same,VEGF165 protein,[2],not VEGF165 protein
same,anti-angiogenic activity on lesion size / efficacy compared with reference compound,[3]; listed as N-(2-(4-(oxazol-4-ylmethyl)piperazin-1-yl)-5-(trifluoromethyl)phenyl)-5-(pyridin),same efficacy
same,anti-angiogenic activity on lesion size / efficacy compared with reference compound,[3]; listed as compound 17,same anti-angiogenic activity on lesion size and the same efficacy as reference compounds
bevicizumab (Avastin): an anti-VEGF antibody from which Lucentis was derived,binding potency to VEGF165b versus VEGF165,VEGF165b and VEGF165,equal potency
B1,patients who maintained visual acuity (loss of <15 letters),neovascular AMD,approximately 95%
same,patients with improved vision (gain of ≥15 letters),neovascular AMD,≤ 40%
